Earlier results on 1 substance are cited in PMC6261507 (ACS applied nano materials, 2018).

The test system of this series is integrin αvβ3.

As to “Arg-Gly-Asp [RGD, arginine-glycine-aspartic acid]”, the “affinity towards integrin αvβ3” value is “nanomolar affinity”.
